According to US20250152577A1, “Pharmaceutical Composition of Ethidium Bromide and Use in Treating Cancer” (RUIJIN HOSPITAL, SHANGHAI JIAOTONG UNIVERSITY SCHOOL OF …, priority 2022, published 2025):

Legend:
PANC1 Pancreatic cancer = test: Median lethal dosage (IC50) against tumor cell lines; type: cell-based; conditions: Homo sapiens, PANC-1; PANC1 pancreatic cancer tumor cells
[1] = system: pancreatic cancer cells Panel; test: Ectopic lung metastasis after intravenous injection of pancreatic cancer cells in nude mice; type: in vivo; conditions: intravenous 5 mg/Kg per day, start about 3 weeks after cell injection, 4 weeks
Method: In addition, to further investigate the effect of ethidium bromide on ectopic tissue metastatic tumors, we injected 2×10^6 pancreatic cancer cells Panel intravenously into nude mice. After ectopic tissue metastasis, tumors formed primarily in the lungs. After approximately 3 weeks, intravenous administration of 5 mg/Kg ethidium bromide per day was started after the tumor had already grown in the lung tissue (FIG. 15A). The mice were sacrificed after 4 weeks of administration and the lungs were removed for test.

C2C12 = test: Median lethal dosage (IC50) against normal cell lines; type: cell-based; conditions: Mus musculus; C2C12 normal cells
AGS Gastric cancer = test: Median lethal dosage (IC50) against tumor cell lines; type: cell-based; conditions: AGS gastric cancer tumor cells
[2] = system: colorectal cancer cells RKO; test: Intraperitoneal injection of colorectal cancer cells RKO in nude mice, intravenous administration; type: in vivo
Source text: In order to further investigate whether ethidium bromide also has a better inhibitory effect on other types of tumors, we administered nude mice 2 weeks after the intraperitoneal injection of 2×10^6 colorectal cancer cells RKO, and then tested the anti-tumor effect of ethidium bromide after 4 weeks of intravenous administration, as described above.

Reh Leukemia = test: Median lethal dosage (IC50) against tumor cell lines; type: cell-based; conditions: Reh leukemia tumor cells
3T3-L1 = test: Median lethal dosage (IC50) against normal cell lines; type: cell-based; conditions: Mus musculus; 3T3-L1 normal cells
[3] = cited from earlier work
Sk-Hep1 Liver cancer = test: Median lethal dosage (IC50) against tumor cell lines; type: cell-based; conditions: Homo sapiens; Sk-Hep1 liver cancer tumor cells
[4] = system: AOM+DSS-induced colorectal tumor; test: AOM+DSS-induced spontaneous colorectal cancer mouse model; type: in vivo, mice
Method: The classical intraperitoneal injection of AOM and the spontaneous colorectal cancer formation by three rounds of DSS were utilized to construct a tumor mouse model. Mice were treated with ethidium bromide (500 mg/L dissolved in drinking water) one week after completion of the construction. […] Mice were sacrificed and their colorectum was taken for photographic observation and fixed staining.
To further verify the above results, we then expanded the sample size to about 10-16 mice per group and still used the above AOM+DSS protocol to induce spontaneous colorectal cancer formation in mice. […] Meanwhile, since it has been reported that zalcitabine (ddC) can effectively impair the function of mitochondria (mainly the replication of mtDNA, similar to ethidium bromide), we added the experimental group of zalcitabine (33 mg/Kg) as a control.
In addition, in order to investigate in what way ethidium bromide clears tumors in mice, we also tested cell proliferation (FIGS. 8A and B) and apoptosis (FIG. 8C-F) in tumor tissues and normal tissues surrounding the tumors in different treatment groups. Among them, cell proliferation was detected by immunohistochemistry of Ki67-positive cells, and apoptosis was detected by immunofluorescence staining of cleaved Caspase3.
To further verify whether ethidium bromide is still effective against already existing larger tumors (advanced colorectal cancer), we set aside a group of control mice (started administration 5 weeks after the end of induction, equivalent to the control group of mice described above) to administer them by gavage (20 mg/Kg per day).
We investigated the mechanism of ethidium bromide-induced apoptosis in tumor cells. First, tumor tissues treated with ethidium bromide (mice shown in FIGS. 7 and 8, treated for 4 weeks at 20 mg/Kg per day) were subjected to SDS-Loading buffer boiling lysis and tested for associated signaling pathways by Western blotting.

normal cell line GES1 = test: Mitochondrial function by Seahorse; type: cell-based; conditions: Seahorse after 6 hours
Method: To further verify the effect of ethidium bromide on mitochondrial function, various cell lines were treated with ethidium bromide and mitochondrial function was tested by using Seahorse after 6 hours.

[5] = system: colorectal cancer cells RKO; test: Subcutaneous RKO solid tumor in nude mice, gavage administration; type: in vivo; conditions: gavage 20 mg/Kg
Method: We also tested the anti-tumor activity of ethidium bromide against subcutaneous solid tumors. 2×10^6 colorectal cancer cells RKO were injected subcutaneously. About 1 week later, when solid tumors grew subcutaneously in nude mice, gavage administration (20 mg/Kg) was started. The size of the tumors was measured twice a week.

MEF = test: Median lethal dosage (IC50) against normal cell lines; type: cell-based; conditions: Mus musculus; MEF normal cells
[6] = system: colorectal cancer cells RKO; test: Scratch assay of cultured cells (migration); type: cell-based, human
Source text: (§1) Ectopic metastasis of tumors is the biggest challenge in tumor treatment.

[7] = system: pancreatic tumor cells Panc1; test: Scratch assay of cultured cells (migration); type: cell-based, human
Source text: as §1

[8] = system: tumor tissue blocks (PDX) from patients with colorectal cancer; test: Subcutaneous patient colorectal cancer graft (PDX) in nude mice; type: in vivo
[9] = system: colorectal cancer cells RKO; test: Intraperitoneal RKO in nude mice, intraperitoneal administration; type: in vivo; conditions: intraperitoneal 10 mg/Kg once daily until day 5
Method: In addition, we also tested for nude mice utilizing intraperitoneal administration, where 2×10^6 colorectal cancer cells, RKO, were first injected intraperitoneally in nude mice, and about 3 days later, we treated the nude mice using intraperitoneal administration (10 mg/Kg).

[10] = intravenous, start 2 weeks after cell injection, 4 weeks
[11] = gavage 20 mg/Kg once daily, one month

With CC[n+]1c(-c2ccccc2)c2cc(N)ccc2c2ccc(N)cc21 [ethidium bromide, Ethidium bromide] the IC50 (PANC1 Pancreatic cancer) was 3.3 µM, the “tumors in the lung tissues vs control” value [1] was “significantly smaller than those in the control group” and the IC50 (C2C12) was 85.5 µM. The IC50 (AGS Gastric cancer) was 0.71 µM, the “liver and spleen weights vs control” value ([2]; intravenous, 4 weeks) was “no significant difference in liver and spleen weights” and the “abdominal tumors vs control” value [2, 10] was “significantly smaller than those in the control group”. The “mice with tumors completely cleared” value [2, 10] was “approximately 25%”, the body weight ([2]; later stage, dosing group) was “slight decrease in body weight” and the IC50 (Reh Leukemia) was 2.23 µM. The IC50 (3T3-L1) was 67.9 µM, the “DNA mutations and carcinogenesis in cells or organisms” value ([3]; National Toxicology Program, 1239-45-8) was “no evidence that ethidium bromide can induce DNA mutations and carcinogenesis” and the “genetic mutations in cells” value ([3]; long-term treatment, Mutation Research, 174(1986) 175-178) was “do not create genetic mutations”. For the same compound, the IC50 (Sk-Hep1 Liver cancer) was 1.26 µM, the colorectal tumor mass ([4]; 500 mg/L in drinking water, start one week after model construction, 2 months) was “almost complete disappearance of the tumor mass” and the “cleaved Caspase3, phosphorylation of Erk, LC3 level in tumor tissues (Western blotting)” value ([4]; 4 weeks at 20 mg/Kg per day) was “significant increase in cleaved Caspase3”. The body weight [4, 11] was “little changed”, the “mice with complete disappearance of spontaneous colorectal tumors” value [4, 11] was “more than 80%” and the “mtDNA copy number of colorectal tumors” value [4, 11] was “did not alter the mitochondrial mtDNA copy number”. The “size of the spleen, length of colorectum, weight of tissue organs vs control” value [4, 11] was “healthier”, the “mice achieving complete tumor clearance” value ([4]; larger (advanced) tumors, start 5 weeks after end of induction, gavage 20 mg/Kg per day, 1 month) was “more than 40%” and the “Caspase3-positive tumor cells (apoptotic cells, immunofluorescence)” value ([4]; vs other groups and surrounding normal tissues) was “significantly higher”. For the same compound, the “proliferation of tumor cells (Ki67-positive, immunohistochemistry)” value ([4]; vs other treatment groups) was “significantly lower”, the “oxygen consumption, glycolysis level, glycolysis rate” value (normal cell line GES1) was “decreased only at higher concentrations such as 5 μM” and the “viability of nude mice” value [5] was “contributed to improve the viability of nude mice”. The “inhibitory effect on subcutaneous solid tumors” value ([5]; start about 1 week after cell injection) was “very unsatisfactory”, the IC50 (MEF) was 38.5 µM and the “migration of tumor cells” value [6] was “significantly inhibit the migration”. The “migration of tumor cells” value [7] was “significantly inhibit the migration”, the subcutaneous tumor mass ([8]; 20 mg/Kg in PBS injected directly into the tumor, once a day, three injections) was “rapidly necrotic and eventually died and fell off” and the anti-tumor effect ([8]; intravenously administered) was “very limited”. The deaths [9] was “excessive deaths in nude mice”.
